In patent publication US20210204574A1, “Consumable Product Comprising Malted Wheat” (Lantmannen Functional Foods AB, priority 2018, published 2021):

tested on: compleasomes (proteasome/complement complexes); assay: Compleasome assay in blood (sandwich ELISA, mab against AF / polyclonal against C3c); type: in vivo, Sprague-Dawley rats; conditions: FIG. 10a; 5 μM phenol or leachate in drinking water for 14 days; reversed titre
Procedure: In another set of experiments, the rats were given water extracts of the cereals or purified phenols in their drinking water. The malted Kosack wheat was milled to flour, of which 200 g was put in a glass flask and 800 ml boiling water was successively mixed with the flour. After 3 hours of slow cooling to room temperature, the soak-water was filtered through a nylon filter and centrifuged for 30 min at 12000×g. The supernatant was frozen in 50 ml portions and diluted 1:6 with water each day during the experiment. Freeze-dried purified fractions of wheat extracts were dissolved in the drinking water. […] The drinks or the water control were given in excess over 1-14 days before testing of antisecretory activity.
Rats were given leachate from malted wheat or pure phenols in the drinking water as described above. After 14 days, blood samples were drawn as described elsewhere (Bjorck et al., 2000 and Lönnroth et al., 2016) and the antisecretory activity in blood was estimated by performing a sandwich enzyme-linked immunosorbent assay (ELISA) for detection of compleasomes (proteasome/complement complexes) in blood plasma as described elsewhere (Lonnroth et al., 2016). A monoclonal antibody (mab) against antisecretory factor was used as catching antibody and a polyclonal antibody against complement factor 3c as detecting antibody. The titre was determined after development by a secondary antibody coupled to alkaline phosphatas.

| Molecule | proteasome/C3 complex (AF activity in blood) compared to controls |
| --- | --- |
| COc1cc(/C=C/C(=O)O)ccc1O [Ferulic acid] | significantly higher |
| COc1ccccc1O [Guaiacol, 2-methoxyphenol] | significantly higher |

same assay, conditions: FIG. 10b; in drinking water for 14 days, 5 animals/group

| Molecule | compleasome concentration (AF activity in blood) |
| --- | --- |
| COc1cc(/C=C/C(=O)O)cc(OC)c1O [sinapic acid] | significant increase |
| catechin | significant increase |

tested on: cholera toxin-induced secretion; assay: not given; parameters: species or system Sprague-Dawley rats; conditions: rat, in vivo

| Molecule | AF units | Inhibition, % | antisecretory activity of pure phenols (in words) |
| --- | --- | --- | --- |
| Oc1cc2c(cc1O)CN(C(=S)NCCc1ccc(Cl)cc1)CCC2 [Capsazepine] | 0.8 ± 0.1 1.3 ± 0.1 AF units | 38 66% | as active as guaiacol |
| COc1ccc([C@@H]2OC[C@@H]3[C@H]2CO[C@H]3c2ccc(OC)c(OC)c2)cc1OC [Eudesmine] | – | 16% | increased secretion |
| COc1cc(/C=C/C(=O)O)ccc1O [Ferulic acid] | 1.2 ± 0.2 AF units | 67% | significant antisecretory activity |
| COc1ccccc1O [Guaiacol, 2-methoxyphenol] | 0.9 ± 0.3 1.0 ± 0.2 1.5 ± 0.2 AF units | 46 51 76% | induced antisecretory activity as early as day 1 |
| O=c1c(O)c(-c2ccc(O)c(O)c2)oc2cc(O)cc(O)c12 [Quercetin] | 0.8 ± 0.1 AF units | 42% | significant antisecretory activity |
| Oc1cccc(O)c1 [Resorcinol] | 0.6 ± 0.1 AF units | 30% | much smaller effect |
| OCc1ccccc1O[C@@H]1O[C@H](CO)[C@@H](O)[C@H](O)[C@H]1O [Salicin] | 0.3 ± 0.1 AF units | 17% | much smaller effect |
| COc1cc(C(=O)O)ccc1O [Vanillic acid] | 1.1 ± 0.1 AF units | 57% | significant antisecretory activity |
| COc1ccccc1OC [Veratrole] | – | 21% | induced secretion |
